The record followed here is ChEMBL document CHEMBL1201862, “PubChem BioAssay data set” (2004).

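Protocol summary: plate cells (96-well), add compound at 5 concentrations, incubate 48 h, interpolate endpoints linearly. Abbreviation: GI50, concentration required for 50% inhibition of growth.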 Active and inactive are the calls of the source. Cut-off read from the data, not from the text of the source: active = GI50 up to about 1.1 µM and inactive = higher.

Common to all, as to test: inhibition of tumour cell growth, NCI panel, 48 h
In test [1] the test system is 786-0.
For test [2], the system named is ACHN.
Test [3] concerns CCRF-CEM.
Test [4] concerns HCT-116.
Test [5] concerns KM12.
In test [6] the test system is M14.
Test [7] has as its system MCF7.
Test [8] concerns MDA-MB-231.
The subject of test [9] is MDA-MB-435.
Test [10] has as its system MOLT-4.
In test [11] the test system is NCI-H226.
Test [12] has as its system OVCAR-3.
The subject of test [13] is SF-295.
In test [14] the test system is SK-MEL-2.
Test [15] concerns SK-MEL-5.
The test system of test [16] is SK-OV-3.
Test [17] has as its system SN12C.
Test [18] has as its system SR.
Test [19] concerns UACC-257.
The subject of test [20] is CAKI-1.

As to `COc1ccc(C[n+]2cccc(O)c2)cc1`, the GI50 in test [1], in test [2], in [3], in test [4], in test [5] and in [6] was > 100 µM (inactive) throughout. Also, the GI50 in test [7], in test [8], in test [9], in test [10], in [11] and in [12] was > 100 µM (inactive) throughout. Moreover, the GI50 in test [13], in [14], in test [15], in [16], in test [17] and in test [18] was > 100 µM (inactive) in each case.
On to `O=C1CC(c2ccc([N+](=O)[O-])cc2)C2(C(=O)NC(=S)NC2=O)C(c2ccc([N+](=O)[O-])cc2)C1` (stereo not drawn), for which the GI50 in test [1] was 27.7 µM (inactive); in test [2], 20.1 µM (inactive); in test [3], 27.7 µM (inactive); in test [4] it was 16.7 µM (inactive); in test [5], 18.5 µM (inactive); in [6], 19 µM (inactive). Besides, the GI50 was 21.4 µM (inactive) in [7]; 13.6 µM (inactive) in test [8]; 15 µM (inactive) in test [9]; 73.3 µM (inactive) in [10]; 15.7 µM (inactive) in test [11]; 32 µM (inactive) in test [12]. The GI50 is 25.5 µM (inactive) in test [13]; 31.3 µM (inactive) in test [15]; 35.9 µM (inactive) in test [16]; 21.5 µM (inactive) in test [17]; 52.2 µM (inactive) in [18]; 18.1 µM (inactive) in test [19].
Take `Nc1ccccc1SC(C[N+](=O)[O-])c1ccc2c(c1)OCO2` (stereo not drawn): the GI50 is 1.66 µM (inactive) in test [1]; 6.46 µM (inactive) in [2]; 13.7 µM (inactive) in test [20]; 1.81 µM (inactive) in test [4]; 2.44 µM (inactive) in test [5]; 1.62 µM (inactive) in [6]. The GI50 is 2.99 µM (inactive) in test [7]; 7.1 µM (inactive) in test [8]; 2.32 µM (inactive) in test [9]; 2.3 µM (inactive) in [10]; 11.2 µM (inactive) in test [11]; 3.28 µM (inactive) in test [12]. The GI50 in test [13] is 4.89 µM (inactive); in test [14] it was 14.6 µM (inactive); in test [15], 3.26 µM (inactive); in test [16], 4.54 µM (inactive); in test [17], 3.37 µM (inactive); in test [18], 1.91 µM (inactive). In addition, the GI50 in [19] was 1.81 µM (inactive).
With `CC1=CC2=C(C(N)=O)C(=O)OC2(C)C(c2ccccc2)C1` (stereo not drawn), the GI50 in [1], in [2], in test [4], in [5], in [6] and in test [7] was > 100 µM (inactive) in each case. In addition, the GI50 in test [8], in test [9], in test [10], in [11], in test [12] and in [13] was > 100 µM (inactive) in each case. Also, the GI50 in test [14], in test [16], in [17], in test [18] and in test [19] was > 100 µM (inactive) each time.
On to `CN(/N=C(\C(=O)O)c1ccccc1)C1=NCCN1`, for which the GI50 in test [1], in test [2], in test [20], in [3], in [4] and in test [5] was > 100 µM (inactive) in each case. Moreover, the GI50 in [7], in [8], in test [9], in test [10], in [11] and in [12] was > 100 µM (inactive) throughout. In addition, the GI50 in test [13], in test [14], in test [15], in test [16], in test [17] and in [18] was > 100 µM (inactive) each time. In addition, the GI50 in test [19] was > 100 µM (inactive).
For `CCC[C@@H]1C(=O)N=C(N)N1C(=O)OCc1ccccc1`, the GI50 in [1], in [2], in test [20], in test [4], in [5] and in test [7] was > 100 µM (inactive) throughout. In addition, the GI50 in test [8], in test [9], in [10], in test [11], in test [12] and in test [13] was > 100 µM (inactive) each time. The GI50 in test [14], in test [15], in test [17], in test [18] and in test [19] was > 100 µM (inactive) throughout.
Consider `COc1c(C)c(C/C=C(\C)CC/C=C(\C)CC/C=C(\C)CC/C=C(\C)CCC=C(C)C)c(OC)c(OC)c1OC`, for which the GI50 in test [1] was 16.9 µM (inactive); in test [2] it was 16.4 µM (inactive); in test [20] it was 81.3 µM (inactive); in [3] it was 23.9 µM (inactive); in test [4], 58.3 µM (inactive); in test [5], 14.7 µM (inactive). The GI50 in test [6] was 50.9 µM (inactive); in [7], 51.1 µM (inactive); in [8], 28.3 µM (inactive); in test [9] it was 31.1 µM (inactive); in [10] it was 40.6 µM (inactive); in [12] it was > 100 µM (inactive). Moreover, the GI50 in test [13] is 19.9 µM (inactive); in test [14] it was > 100 µM (inactive); in test [15], 16.7 µM (inactive); in [16] it was > 100 µM (inactive); in test [17], 22.9 µM (inactive); in [18], 22.9 µM (inactive). In test [19], the GI50 was 80.5 µM (inactive).
For the molecule `CNC/C(Cl)=N/S(=O)(=O)c1ccc(C)cc1`, the GI50 is 9.93 µM (inactive) in test [1]; 15.8 µM (inactive) in test [2]; 13.2 µM (inactive) in test [20]; 8.09 µM (inactive) in test [4]; 13.8 µM (inactive) in [5]; 10.3 µM (inactive) in test [6]. The GI50 was 7.94 µM (inactive) in [7]; 13.7 µM (inactive) in test [8]; 6.15 µM (inactive) in test [9]; 19.5 µM (inactive) in [11]; 12.4 µM (inactive) in [12]; 14.7 µM (inactive) in test [13]. Further, the GI50 in test [14] is 15 µM (inactive); in [15], 15 µM (inactive); in test [16], 22.8 µM (inactive); in [17] it was 9.75 µM (inactive); in test [18] it was 3.84 µM (inactive); in [19], 9.27 µM (inactive).
For the molecule `O=C1c2ccc3ccccc3c2CCC1N1CCCCC1` (stereo not drawn), the GI50 in test [1] is 18 µM (inactive); in test [2] it was 17.7 µM (inactive); in test [20], 16 µM (inactive); in [4], 17.8 µM (inactive); in [5] it was 17.7 µM (inactive); in [7], 33.3 µM (inactive). The GI50 in test [8] is 16.9 µM (inactive); in test [9], 18 µM (inactive); in test [11] it was 15.8 µM (inactive); in [12], 15.4 µM (inactive); in [13], 19.3 µM (inactive); in test [14], 19.6 µM (inactive). The GI50 was 17 µM (inactive) in test [15]; 22 µM (inactive) in test [16]; 15.6 µM (inactive) in test [17]; 15.1 µM (inactive) in [18]; 20.7 µM (inactive) in [19].
Take `N#Cc1nc(/C=C/c2nc(C#N)c(N)o2)oc1N`: the GI50 in [1], in [2], in [20], in [3], in test [4] and in test [5] was > 10 µM (inactive) throughout. The GI50 in [6], in test [7], in test [8], in test [9], in test [11] and in [13] was > 10 µM (inactive) each time. The GI50 in [15], in [16], in [17], in test [18] and in test [19] was > 10 µM (inactive) in each case.
For `O=c1c(=O)c2cscc2c1=O`, the GI50 in [1] was 5.22 µM (inactive); in test [2], 4.69 µM (inactive); in [20] it was 4.4 µM (inactive); in [4], 4.9 µM (inactive); in test [5], 5.15 µM (inactive); in test [6], 4.94 µM (inactive). Further, the GI50 is 6.24 µM (inactive) in test [7]; 5.14 µM (inactive) in test [8]; 4.65 µM (inactive) in [9]; 4.58 µM (inactive) in test [10]; 5.55 µM (inactive) in test [11]; 5.62 µM (inactive) in [12]. Besides, the GI50 was > 25 µM (inactive) in test [13]; 4.92 µM (inactive) in test [14]; 4.42 µM (inactive) in [15]; > 25 µM (inactive) in test [16]; 5.87 µM (inactive) in test [17]; 0.137 µM (active) in test [18]. Further, in [19], the GI50 is 4.27 µM (inactive).
